The test system of one series is E. coli K12 MG1655. The series is described as follows: microbe, parasite or virus in culture. The format is cell-based, Escherichia coli. Particulars: 37°C, 18 h; for MIC values: Table 3, strain MG1655. On the procedure:
(§1) All strains used in this study are listed in Supplementary Table S1. E. coli strains WD101 and WD101ΔeptAΔarnD (WD101ΔΔ) were kindly provided by Professor M. Stephen Trent (University of Georgia, USA). E. coli strains DB wild type, DB L5, and DB L9 were kindly provided by Dr. Douglas Browning (University of Birmingham, UK). Single deletion strains for envelope mutants were obtained from the Keio-collection (Baba et al., [2006]). All strains were grown in non-cation adjusted Muller Hinton broth (MHB) (Sigma, Cat. No. 70192). BPP-PNA conjugates (Table 1) were obtained as described previously (Good et al., [2001]; Ghosal et al., [2013]; Hansen et al., [2016]).
(§2) Minimum inhibitory concentration (MIC) values were determined by broth microdilution according to standard protocols adapted to peptide-based antimicrobial compounds (Goltermann and Nielsen, [2020]). Briefly, 190 μl bacterial cell culture containing ≈10^5 cfu/ml was dispensed into a 96-well plate (Thermo Scientific, Nunc Cat. No. 260896, 96F straight w/lid) along with 10 μl PNA stock solution or antibiotic. The plate was incubated in a Tecan Genios plate reader at 37°C for 18 h, and OD was measured every 20 min at 595 nm. The MIC was determined as the lowest concentration, which inhibited visible growth (OD < 0.1) in the wells. […] Experiments were performed in triplicates as a minimum.

Series [1] has as its system E. coli ATCC25922 ΔrfaC (120 ΔrfaC). The series is described as follows: MIC broth microdilution. The format is cell-based, Escherichia coli. As to conditions: for MIC values: Table 3, strain ATCC25922 ΔrfaC. The protocol:
as §1, §2

Another series deals with E. coli MG1655 ΔsbmA. In words: MIC broth microdilution. The format is cell-based, Escherichia coli. Particulars: Table 3; strain MG1655 ΔsbmA; MHB, 37°C, 18 h. The protocol:
as §1, §2

A further series concerns E. coli ATCC25922. It counts as cell-based, Escherichia coli. Particulars: strain ATCC25922, MHB, 37°C, 18 h; for MIC values: Table 3. The protocol:
as §1, §2

Series [2] is described as follows: HPLC analysis of BPP-PNA relative hydrophobicity. It counts as physicochemical. As to conditions: chromatographic measure of hydrophobicity; RP18 column (150 ×3.9 mm DeltaPak, 5 μm); 0 to 40% buffer B (95% acetonitrile, 0.1% TFA) in 30 min; conjugates dissolved in water and mixed; recorded at 260 nm. The protocol: Hydrophobicity of the BPP-PNA conjugates was measured using reversed phase high-performance liquid chromatography (HPLC) on an RP18 column (150 ×3.9 mm DeltaPak, 5 μm; Waters Corporation, Milford, MA, USA). Briefly, all the BPP-PNA conjugates were dissolved in water and mixed. The mixture of BPP-PNA conjugates has been run on HPLC and recorded at 260 nm. The HPLC buffers used in this study are buffer A composed of 5% acetonitrile, 0.1% trifluoroacetic acid (TFA), and 95% H2O, and buffer B composed of 95% acetonitrile, 0.1% TFA, and 5% H2O; the gradient starts from 100% of buffer A, 0% of buffer B, and ends with 60% of buffer A, 40% of buffer B in 30 min. Hydrophobicity of the compound was directly correlated to the HPLC retention time of each conjugate.

The test system of the next series is E. coli AS19. The series is described as follows: MIC broth microdilution. It counts as cell-based, Escherichia coli. Particulars: Table 2; strain AS19; MHB, 37°C, 18 h. The protocol:
as §1, §2

Series [3] deals with E. coli 122 ΔrfaF (ATCC25922 ΔrfaF). The format is cell-based, Escherichia coli. As to conditions: Table 2; strain 122 ΔrfaF; MHB, 37°C, 18 h. The protocol: as §1, §2
Series [4] concerns E. coli 123 ΔrfaG (ATCC25922 ΔrfaG). It counts as cell-based, Escherichia coli. As to conditions: Table 2; strain 123 ΔrfaG; MHB, 37°C, 18 h. On the procedure: as §1, §2
In series [5] the test system is E. coli R3 core type (F653). The format is cell-based, Escherichia coli. As to conditions: Table 2; strain R3; MHB, 37°C, 18 h. The protocol: as §1, §2
Series [6] has as its system E. coli R4 core type (F2513). The format is cell-based, Escherichia coli. Particulars: Table 2; strain R4; MHB, 37°C, 18 h. On the procedure:
as §1, §2

Series [7] relates to E. coli R2 core type (F632). The format is cell-based, Escherichia coli. As to conditions: Table 2; strain R2; MHB, 37°C, 18 h. On the procedure:
as §1, §2

Series [8] has as its system E. coli WD101 (polymyxin-resistant pmrA^C). The format is cell-based, Escherichia coli. Particulars: Table 2; strain WD101; MHB, 37°C, 18 h. The protocol:
as §1, §2

Another series has as its system E. coli WD101ΔΔ. The format is cell-based, Escherichia coli. Particulars: Table 2; strain WD101ΔΔ; MHB, 37°C, 18 h. The protocol: as §1, §2
For series [9], the system named is E. coli R1 core type (F470). The format is cell-based, Escherichia coli. Particulars: Table 2, strain R1* (48 h), MHB, 37°C. On the procedure: as §1
Minimum inhibitory concentration (MIC) values were determined by broth microdilution according to standard protocols adapted to peptide-based antimicrobial compounds (Goltermann and Nielsen, [2020]). Briefly, 190 μl bacterial cell culture containing ≈10^5 cfu/ml was dispensed into a 96-well plate (Thermo Scientific, Nunc Cat. No. 260896, 96F straight w/lid) along with 10 μl PNA stock solution or antibiotic. […] The MIC was determined as the lowest concentration, which inhibited visible growth (OD < 0.1) in the wells. […] Experiments were performed in triplicates as a minimum.

Series [10] concerns E. coli 121 ΔrfaE (ATCC25922 ΔrfaE). The series is described as follows: MIC broth microdilution. It counts as cell-based, Escherichia coli. As to conditions: Table 2; strain 121 ΔrfaE; MHB, 37°C, 18 h. The protocol:
as §1, §2

Series [11] relates to E. coli inner core mutants (ΔrfaC, ΔrfaE, ΔrfaF, and ΔrfaG). In words: MIC broth microdilution, inner core mutants as a group. The format is cell-based, Escherichia coli. Particulars: all the inner core mutants as well as AS19. The protocol: as §2
Four inner core mutants (ΔrfaC, ΔrfaE, ΔrfaF, and ΔrfaG) with increasingly shortened LPS core (Figure 2A) were investigated. The deletions span the three heptosyl and glycosyltransferases rfaC, rfaF, and rfaG responsible for attaching heptose and glucose, respectively, to the growing LPS core, and rfaE required for the synthesis of the heptose precursor needed for LPS synthesis (Figure 2A). […] Furthermore, all strains were characterized with respect to hydrophobicity and accessible cell surface charge (Figure 2B, vide infra). […] It is known that the peptide portion of the conjugates can have a membrane disruptive effect at high concentrations (Eriksson et al., [2002]). […]

Where [12] appears, read: Table 2, strain K12 MG1655, MHB.

In brackets after ≈: the same amount, converted by molar mass. Like-named read-outs stand apart in the source and are kept apart here. Positions of bridges follow the written chain, without caps; N, C: chain ends. Non-standard residues stand in square brackets, D forms with d. Residues, ends and D or L forms follow the SMILES beside them. *: point of attachment. X1 = CC[C@H](C)CCCCC(=O)*; Dab = NCC[C@H](N)C(=O)O Where only a bound is given, the exact number is not on record here.

Regarding “-Cys-VDKPPYLPRPRPPRRIYNR-NH2 (oncocin) [PNA4124, anti acpP PNA conjugated to oncocin via Cys]”, the MIC values is 8 µM with E. coli K12 MG1655 (MHB); 0.25 µM in series [1] (MHB, 37°C, 18 h, listed as 4124); greater than 8 µM against E. coli MG1655 ΔsbmA; greater than 2 µM in the series with E. coli ATCC25922 (listed as 4124).
With “-Cys-VDKPPYLPRPRPPRRIYNR-NH2 (oncocin) [PNA4700, mm for PNA4124]”, the MIC values in series [1] (MHB, 37°C, 18 h, listed as 4700) was 4 µM; against E. coli ATCC25922 (listed as 4700), greater than 8 µM.
“-Cys-GKPRPYSPRPTSHPRPIRV-NH2 (Drosocin) [PNA4242, mm for PNA4128]”: the MIC values in [1] (MHB, 37°C, 18 h, listed as 4242) is less than 1 µM; in the series with E. coli ATCC25922 (listed as 4242), greater than 8 µM.
For the compound “-Cys-RAGLQFPVGRVHRLLRK-NH2 (BF2A) [PNA4243, mm for PNA4030]”, the MIC values is less than 2 µM in [1] (MHB, 37°C, 18 h) and greater than 8 µM against E. coli ATCC25922.
With “-Cys-RAGLQFPVGRVHRLLRK-R-X-R-NH2 (BF2A) [PNA4449, anti acpP PNA conjugated to BF2A extended by R-X-R]”, the MIC values against E. coli K12 MG1655 (MHB) is less than 0.5 µM; in series [1] (MHB, 37°C, 18 h) it was less than 0.25 µM; in the series with E. coli MG1655 ΔsbmA it was greater than 4 µM; with E. coli ATCC25922 it was 1 µM.
For “-Cys-GKPRPYSPRPTSHPRPIRV-R-X-R-NH2 [PNA4448, anti acpP PNA conjugated to drosocin extended by R-X-R]” the same measures were 1 to 2 µM, less than 0.12 µM, 2 µM and 2 µM.
For “-Cys- RAGLQFPVGRVHRLLRK-NH2 (BF2A) [PNA4030, anti acpP PNA conjugated to buforin 2a (BF2A) via Cys]” the same measures were 1 µM, less than 0.25 µM, 8 to 16 µM and 0.5 µM.
With “H-CTCATACTCT-NH2 [PNA2301, unconjugated anti acpP PNA, H-…-NH2]”, the “HPLC retention time (RT)” value in series [2] stood at 14 min. The Minimum inhibitory concentration in the series with E. coli K12 MG1655 (Table 2, strain K12 MG1655, non-cation adjusted MHB, ≈10^5 cfu/ml, triplicates minimum) was greater than 32 µM; in the series on E. coli AS19 it was 2 µM; in series [3], greater than 4 µM; in series [4], greater than 16 µM; in the series with E. coli ATCC25922 (Table 2) it was greater than 16 µM; in series [5] it was greater than 16 µM. The Minimum inhibitory concentration in series [6] was greater than 16 µM.
In the case of `CC[C@H](C)CCCCC(=O)N[C@@H](CCN)C(=O)N[C@H](C(=O)N[C@@H](CCN)C(=O)N[C@H]1CCNC(=O)[C@H]([C@@H](C)O)NC(=O)[C@H](CCN)NC(=O)[C@H](CCN)NC(=O)[C@H](CC(C)C)NC(=O)[C@@H](CC(C)C)NC(=O)[C@H](CCN)NC1=O)[C@@H](C)O` [Colistin] (X1-[Dab]T[Dab][Dab][Dab][dL]L[Dab][Dab]T; lactam 4-C (inferred); N-terminus assumed), the “Minimum inhibitory concentration, Colistin” value with E. coli K12 MG1655 (setting [12]) is 0.03 µg/mL (≈ 0.0257 µM); in series [3] it was 0.016 µg/mL (≈ 0.0137 µM); in series [4] it was no more than 0.016 µg/mL; in the series on E. coli ATCC25922 (Table 2) it was 0.06 µg/mL (≈ 0.0513 µM); in series [7], 0.03 µg/mL (≈ 0.0257 µM); in [5] it was 0.06 µg/mL (≈ 0.0513 µM). The “Minimum inhibitory concentration, Colistin” value in [6] was 0.03 µg/mL (≈ 0.0257 µM); in [8], 4 µg/mL (≈ 3.42 µM); in the series with E. coli WD101ΔΔ, no more than 0.016 µg/mL; in series [9] it was 0.016 µg/mL (≈ 0.0137 µM).
Turning to `CCCCCCCCCCCCOS(=O)(=O)[O-].[Na+]` [SDS, sodium dodecyl sulfate], the “Minimum inhibitory concentration, SDS” value with E. coli K12 MG1655 (setting [12]) is given as 0.12%; in series [10], no more than 0.03%; with E. coli AS19, no more than 0.03%; in series [1] (Table 2, strain 120 ΔrfaC, MHB, 37°C, 18 h), no more than 0.03%; in series [3], no more than 0.03%; in series [4] it was no more than 0.03%. Also, the “Minimum inhibitory concentration, SDS” value is recorded as 0.12% in the series with E. coli ATCC25922 (Table 2); greater than 0.5% in series [7]; greater than 0.5% in [5]; no more than 0.06% in series [6]; 0.12% in [8]; 0.12% in the series on E. coli WD101ΔΔ. For the same compound, in [11], the “MIC, SDS” value was less than 0.03%.
In the case of “-Cys-GKPRPYSPRPTSHPRPIRV-NH2 (Drosocin) [PNA4128, anti acpP PNA conjugated to drosocin via Cys]”, the MIC values against E. coli K12 MG1655 (MHB) is 0.5 to 1 µM; in [1] (MHB, 37°C, 18 h, listed as 4128), less than 0.06 µM; in the series on E. coli MG1655 ΔsbmA, 4 to 8 µM; against E. coli ATCC25922 (listed as 4128) it was 1 µM. The “fold lower MIC in the ΔrfaC-mutant than the ATCC25922 control” value in series [1] (ΔrfaC-mutant vs ATCC25922) is listed as “more than 16 fold”.

The values above are taken from publication PMC9251361, “Effects of LPS Composition in Escherichia coli on Antibacterial Activity and Bacterial Uptake of Antisense Peptide-PNA Conjugates” (Frontiers in Microbiology, 2022).
